Legend:
Assay type in all cases: biochemical
[1] = molecular target: T1, porcine pancreatic elastase (PPE) (Sus scrofa, UniProt P00772); test: Specificity assay, porcine pancreatic elastase; details: 2 hr pre-incubation
T1 construct: purchased Sigma
Description: (§1) The specificities of compounds of the present invention were determined against a variety of serine proteases: human sputum elastase (HS), porcine pancreatic elastase (PPE) and human pancreatic chymotrypsin and one cysteine protease: human liver cathepsin B. In all cases a 96-well plate format protocol using colorimetric p-nitroaniline (pNA) substrate specific for each enzyme was used as described previously (Patent WO 00/09543) with some modifications to the serine protease assays. All enzymes were purchased from Sigma while the substrates were from Bachem.
(§2) Each assay included a 2 hr enzyme-inhibitor pre-incubation at room temperature followed by addition of substrate and hydrolysis to ˜30% conversion as measured on a Spectramax Pro microplate reader. Compound concentrations varied from 100 to 0.4 μM depending on their potency. […]
(§3) The percentage of inhibition was calculated using the formula: [1−((UVinh−UVblank)/(UVctl−UVblank))]×100 […]

[2] = molecular target: T2, HCV NS3/4A protease complex (J4L6S strain, 1b genotype) (Hepatitis C virus genotype 1b, UniProt O92972, C1454S/C1711G); test: Recombinant HCV NS3/4A protease complex FRET peptide assay, J4L6S strain
T2 construct: DNA encoding the recombinant HCV NS3/4A protease complex (amino acids 1027 to 1711) for these strains; inferred from the pET21b vector and Ni-NTA purification; made in house; host or cells: Escherichia coli BL21 (DE3), pET21b
T2 sequence (O92972 1027-1711 C1454S/C1711G, one chain of several): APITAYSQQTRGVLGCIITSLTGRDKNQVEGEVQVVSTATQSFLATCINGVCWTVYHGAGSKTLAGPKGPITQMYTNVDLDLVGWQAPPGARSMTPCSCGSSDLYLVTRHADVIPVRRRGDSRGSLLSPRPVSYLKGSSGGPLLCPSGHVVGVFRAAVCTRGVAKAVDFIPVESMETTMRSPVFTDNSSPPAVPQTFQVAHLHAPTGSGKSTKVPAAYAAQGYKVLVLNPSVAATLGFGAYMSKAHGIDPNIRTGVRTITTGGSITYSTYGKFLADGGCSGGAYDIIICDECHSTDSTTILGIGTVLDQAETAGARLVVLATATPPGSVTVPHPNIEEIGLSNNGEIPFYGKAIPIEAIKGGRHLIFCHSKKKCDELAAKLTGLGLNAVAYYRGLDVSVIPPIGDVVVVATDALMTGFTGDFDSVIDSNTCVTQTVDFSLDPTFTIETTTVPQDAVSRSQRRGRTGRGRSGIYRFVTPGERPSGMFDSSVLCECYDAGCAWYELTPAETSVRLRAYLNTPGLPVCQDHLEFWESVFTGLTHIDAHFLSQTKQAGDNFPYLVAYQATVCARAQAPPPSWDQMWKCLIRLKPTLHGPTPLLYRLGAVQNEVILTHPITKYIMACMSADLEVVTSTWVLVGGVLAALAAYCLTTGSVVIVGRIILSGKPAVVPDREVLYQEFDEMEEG
Description: (§4) The purpose of this in vitro assay was to measure the inhibition of HCV NS3 protease complexes, derived from the BMS, H77C or J416S strains, as described below, by compounds of the present invention.
(§5) Serum from an HCV-infected patient was obtained from Dr. T. Wright, San Francisco Hospital. An engineered full-length cDNA (compliment deoxyribonucleic acid) template of the HCV genome (BMS strain) was constructed from DNA fragments obtained by reverse transcription-PCR (RT-PCR) of serum RNA (ribonucleic acid) and using primers selected on the basis of homology between other genotype 1a strains. […] The infectious clones, H77C (1a genotype) and J4L6S (1b genotype) were obtained from R. Purcell (NIH) and the sequences are published in Genbank (AAB67036, see Yanagi,M., Purcell,R. H., Emerson,S. U. and Bukh,J. Proc. Natl. Acad. Sci. U.S.A. 94(16),8738-8743 (1997); AF054247, see Yanagi,M., St Claire,M., Shapiro,M., Emerson,S. U., Purcell,R. H. and Bukh,J, Virology 244 (1), 161-172. (1998)).
(§6) The BMS, H77C and J4L6S strains were used for production of recombinant NS3/4A protease complexes. DNA encoding the recombinant HCV NS3/4A protease complex (amino acids 1027 to 1711) for these strains were manipulated as described by P. Gallinari et al. (see Gallinari P, Paolini C, Brennan D, Nardi C, Steinkuhler C, De Francesco R. Biochemistry. 38(17):5620-32, (1999)). […]

[3] = molecular target: T3, HCV NS3/4A protease complex (BMS strain, genotype 1a) (Hepatitis C virus genotype 1a, UniProt P27958, C1454S); test: Recombinant HCV NS3/4A protease complex FRET peptide assay, BMS strain
T3 construct: DNA encoding the recombinant HCV NS3/4A protease complex (amino acids 1027 to 1711) for these strains; inferred from the pET21b vector and Ni-NTA purification; made in house; host or cells: Escherichia coli BL21 (DE3), pET21b
T3 sequence (P27958 1658-1714, looked up, stated change not applied): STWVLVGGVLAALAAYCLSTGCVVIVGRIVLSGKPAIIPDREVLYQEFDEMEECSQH
T3 sequence (P27958 1027-1657, looked up, stated change not applied): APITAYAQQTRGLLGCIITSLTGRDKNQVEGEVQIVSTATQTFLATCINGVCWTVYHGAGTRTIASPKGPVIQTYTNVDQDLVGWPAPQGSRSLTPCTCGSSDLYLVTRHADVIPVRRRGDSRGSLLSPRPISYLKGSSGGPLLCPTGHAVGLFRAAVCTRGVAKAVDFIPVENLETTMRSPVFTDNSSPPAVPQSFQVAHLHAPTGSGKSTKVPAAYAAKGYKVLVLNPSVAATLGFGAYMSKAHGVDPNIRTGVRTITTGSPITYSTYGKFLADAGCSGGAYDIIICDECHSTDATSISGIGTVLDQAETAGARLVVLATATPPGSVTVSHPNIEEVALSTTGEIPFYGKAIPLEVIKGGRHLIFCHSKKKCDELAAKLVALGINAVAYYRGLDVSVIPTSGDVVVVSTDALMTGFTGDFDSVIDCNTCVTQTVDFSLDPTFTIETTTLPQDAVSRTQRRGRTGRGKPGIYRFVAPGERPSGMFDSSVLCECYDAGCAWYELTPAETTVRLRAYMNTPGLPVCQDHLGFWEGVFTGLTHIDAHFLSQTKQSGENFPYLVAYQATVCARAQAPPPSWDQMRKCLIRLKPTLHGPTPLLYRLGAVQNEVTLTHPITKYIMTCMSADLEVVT
How it was run: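 Recombinant NS3/4A complex (aa 1027–1711) with C-terminal three-lysine tail, C1711G and C1454S, expressed in E. coli BL21(DE3) and purified by Ni-NTA then Superdex-S200. Inhibition of the complex from each strain measured in vitro by FRET peptide cleavage.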

[4] = molecular target: T4, HCV NS3/4A protease complex (H77C strain, 1a genotype) (Hepatitis C virus genotype 1a, UniProt P27958, C1454S); test: Recombinant HCV NS3/4A protease complex FRET peptide assay, H77C strain
T4 construct: DNA encoding the recombinant HCV NS3/4A protease complex (amino acids 1027 to 1711) for these strains; inferred from the pET21b vector and Ni-NTA purification; made in house; host or cells: Escherichia coli BL21 (DE3), pET21b
T4 sequence (P27958 1027-1657 C1454S): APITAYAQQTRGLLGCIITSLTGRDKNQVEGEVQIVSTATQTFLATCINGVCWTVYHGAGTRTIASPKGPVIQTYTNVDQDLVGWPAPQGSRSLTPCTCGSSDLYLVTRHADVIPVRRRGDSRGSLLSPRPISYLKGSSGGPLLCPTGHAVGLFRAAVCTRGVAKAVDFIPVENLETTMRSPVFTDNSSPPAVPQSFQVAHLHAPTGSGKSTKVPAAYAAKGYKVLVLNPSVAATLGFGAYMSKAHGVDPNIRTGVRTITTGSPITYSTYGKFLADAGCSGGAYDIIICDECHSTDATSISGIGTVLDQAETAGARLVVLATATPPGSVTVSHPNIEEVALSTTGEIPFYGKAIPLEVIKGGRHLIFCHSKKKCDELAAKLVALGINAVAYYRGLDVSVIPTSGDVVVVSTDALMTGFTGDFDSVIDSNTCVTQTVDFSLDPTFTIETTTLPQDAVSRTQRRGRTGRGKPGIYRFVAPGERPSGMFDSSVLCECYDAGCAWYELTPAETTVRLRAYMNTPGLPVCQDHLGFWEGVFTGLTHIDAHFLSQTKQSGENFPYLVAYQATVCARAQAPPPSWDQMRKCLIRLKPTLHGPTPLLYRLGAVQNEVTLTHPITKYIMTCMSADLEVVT
T4 sequence (P27958 1658-1714 partner, looked up, stated change not applied): as the sequence (P27958 1658-1714, looked up, stated change not applied) above
Description: as §4, §5, §6

[5] = tested on: human pancreatic chymotrypsin; test: Specificity assay, chymotrypsin; details: 2 hr pre-incubation
Description: as §1, §2, §3

T1 sequence (P00772 27-266): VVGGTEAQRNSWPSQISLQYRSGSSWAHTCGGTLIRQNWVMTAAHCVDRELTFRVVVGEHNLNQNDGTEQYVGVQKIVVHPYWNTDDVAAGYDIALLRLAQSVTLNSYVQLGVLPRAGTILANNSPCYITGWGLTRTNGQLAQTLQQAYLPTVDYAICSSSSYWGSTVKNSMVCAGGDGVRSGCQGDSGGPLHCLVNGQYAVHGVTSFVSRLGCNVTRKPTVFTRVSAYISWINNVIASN

## C=CC1C[C@]1(NC(=O)[C@@H]1C[C@@H](Oc2cc(-c3ccccc3)nc3cc(OC)ccc23)CN1C(=O)[C@@H](NC(=O)OC(C)(C)C)C(C)(C)C)C(=O)NS(=O)(=O)C1(C)CC1 (stereo in doubt) [Compound 1, (1-{4-(7-Methoxy-2-phenylquinolin-4-yloxy)-2-[1-(1-methylcyclopropanesulfonylaminocarbonyl)-2-vinylcyclopropylcarbamoyl]pyrrolidine-1-carbonyl}-2,2-dimethylpropyl)carbamic acid tert-butyl ester]
[1]
  IC50: > 100000 nM
[2]
  IC50: 1.1 nM
[3]; IC50 against the NS3/4A BMS strain in the enzyme assay, BMS strain
  IC50: 1.8 nM
[3]; IC50 range, NS3/4A BMS Strain
  IC50: < 50 nM
[4]
  IC50: 1.2 nM
[5]
  IC50: > 100000 nM
